Assay results reported in ChEMBL document CHEMBL3232773, “Peniphenones A-D from the mangrove fungus Penicillium dipodomyicola HN4-3A as inhibitors of Mycobacterium tuberculosis phosphatase MptpB” (J Nat Prod, 2014).

Experiment: Inhibition of Mycobacterium tuberculosis H37Rv full-length PTPB expressed in Escherichia coli […] using 6,8-difluoromethylumbelliferyl phosphate as substrate assessed as inhibition of substrate hydrolysis

Row | Molecule | IC50 [nM]
1 | CC(=O)c1cc(C)c(O)c(CC2=C(C)C(=O)C(O)=C(C)C2=O)c1O | 1370
2 | SODIUM ORTHOVANAD | 82
3 | CC(=O)c1cc(C)c(O)c(Cc2c(O)cc(-c3ccc(O)c(O)c3)oc2=O)c1O | 160
